In one test the target is T1, nAChR subtype alpha7 (Homo sapiens, UniProt P36544).
T1 construct: expressed in transfected cells
Briefly: nAChR agonist response (evoked current compared with ACh response) in cells expressing a nAChR subtype. Format: cell-based. The note with it: for agonist characterization at nAChR subtype alpha7: response relative to ACh response. From the text: (§1) In general, a nAChR agonist is a full agonist if it evokes a response upon binding to a given receptor that is equal or greater to that of ACh.
(§2) nAChR agonist response, from which receptor activation can be determined can, for example, be generated using an appropriate cell-based assay. Cells designed to express a particular nAChR receptor subtype and generate an electrical current response when bound to and activated by a nAChR agonist can be used to characterize the agonist profile of a compound and the amount of receptor activation thus determined. An example of a generic protocol is described below.
(§3) Cells that express a particular human nAChR subtype are first exposed to ACh. ACh binds and activates the receptor, thereby evoking a current. […] This current is recorded as the ACh response and serves as the 100% nAChR agonist response and to which responses to other nAChR agonists are compared. After washing, the cells are exposed to a nAChR agonist at various concentrations (e.g., 0.1, 0.3, 1, 3, 10, 30, 100, and 300 micromolar). The current evoked by exposure to the nAChR agonist is measured and recorded for each nAChR concentration. This nAChR agonist response data is then normalized to unity versus the maximal ACh evoked current and plotted as a function of the logarithm of the nAChR agonist concentration. The nAChR agonist response is then calculated as a percentage of the ACh response.
(§4) A nAChR agonist evoking a response equal to or greater than the maximum ACh response determined at the same receptor type is a full agonist. In some cases, a nAChR agonist evoking a response of less than 100% of the ACh response may still be characterized a full agonist, taking into account experimental variability. […] In some cases, a nAChR agonist evoking 90% of the ACh response or greater is considered a full agonist. […] In some cases, a nAChR agonist evoking 80% of the ACh response or greater is considered a full agonist.

The test system of a further test is subjects with dry eye. Particulars: 28-day course of 0.1% ophthalmic formulation, Phase II; cited from earlier work.
The target of test [1] is T2, nAChR subtype alpha6beta2 (Homo sapiens, UniProt P17787+Q15825).
T2 construct: expressed in transfected cells
Kind of test: nAChR agonist response (evoked current compared with ACh response) in cells expressing a nAChR subtype. In kind it is cell-based. Particulars: response relative to ACh response.
Description: as §1, §2
(§5) Cells that express a particular human nAChR subtype are first exposed to ACh. ACh binds and activates the receptor, thereby evoking a current. The concentration of the ACh is chosen to elicit the maximum response of the receptor (e.g., 1280 micromolar ACh). This current is recorded as the ACh response and serves as the 100% nAChR agonist response and to which responses to other nAChR agonists are compared. […] The current evoked by exposure to the nAChR agonist is measured and recorded for each nAChR concentration. […] The nAChR agonist response is then calculated as a percentage of the ACh response.
(§6) A nAChR agonist evoking a response equal to or greater than the maximum ACh response determined at the same receptor type is a full agonist. […]

Test [2] relates to tear film. Kind of test: Mesoscale discovery (MSD) assay of hNGFβ in porcine tears after lacrimal gland transduction. Format: in vivo, pigs (Sus scrofa domesticus). The note with it: pigs given AAV9-hNGFβ; Day 28 (0.03 mg varenicline solution each nostril) vs Day 21 and Day 35 (no nasal spray); data not shown.
Test [3] concerns tear film. Briefly: hNGF concentration in tear film collected on Schirmer test strips (ELISA), with and without intranasal varenicline. In kind it is in vivo, Dutch-Belted rabbits. Particulars: rabbits given rAAV9.hNGF intralacrimally; intranasal varenicline on days 21, 28 and 41. As for the experimental part: FIG. 8 is a plot showing the concentration of hNGF in tear film in animals treated with AAV.hNGF and varenicline. Protein concentration was measured using Schirmer tear strips to collect tear film from Dutch-belted rabbits at the indicated number of days following intralacrimal administration of AAV2.hNGF, AAV5.hNGF, or AAV9.hNGF. At days 21, 28, and 41, tear film was collected following the intranasal administration of the tear inducing agent, varenicline. Control animals had no injection of AAV.
A Schirmer tear test was performed to collect eye moisture from the animals on Days 7, 14, 21, 28, 41, and 42. Test strips were placed inside the lower eyelid for approximately 1 minute. The paper was removed and placed into separate tubes and frozen at −80° C. for subsequent analysis. Schirmer test strips were collected following intranasal administration of varenicline on Days 21, 28, and 41. Test strips were placed inside the lower eyelid for approximately 1 minute. The paper was removed and placed into separate tubes and frozen at −80° ° C. for subsequent analysis. Protein content absorbed onto Schirmer's test strips was analyzed for concentration of hNGF by ELISA assay.
A Schirmer tear test was performed to collect eye moisture from the animals on Days 7, 14, 21, 28, 41, and 42. […] Protein content absorbed onto Schirmer's test strips was analyzed for concentration of hNGF by ELISA assay.
Background: In an ELISA, binding on a coated surface is turned into a signal by an enzyme label.

Test [4] concerns the target T3, nAChR subtype alpha4beta2 (Homo sapiens, UniProt P17787+P43681).
T3 construct: expressed in transfected cells
Briefly: nAChR agonist response (evoked current compared with ACh response) in cells expressing a nAChR subtype. Format: cell-based. The note with it: response relative to ACh response.
Description: as §1, §2, §3, §4

Test [5] deals with T4, nAChR subtype alpha3alpha5beta4 (Homo sapiens).
T4 construct: expressed in transfected cells
The description is as above. The note with it: response relative to ACh response. Format: cell-based.
Description: as §1, §2, §3, §4

For test [6], the target named is T5, nAChR subtype alpha4alpha6beta2 (Homo sapiens, UniProt P17787+P43681+Q15825).
T5 construct: expressed in transfected cells
The description is as above. In kind it is cell-based. The note with it: response relative to ACh response.
Description: as §1, §2, §3, §4

The target of test [7] is T6, nAChR subtype alpha3beta4 (Homo sapiens, UniProt P30926+P32297).
T6 construct: expressed in transfected cells
The description is as above. Particulars: response relative to ACh response. In kind it is cell-based.
Description: as §1, §2, §3, §4

In test [8] the target is T7, nAChR subtype alpha3beta2 (Homo sapiens, UniProt P17787+P32297).
T7 construct: expressed in transfected cells
The description is as above. Particulars: response relative to ACh response. Format: cell-based.
Description: as §1, §2, §5, §6

T1 sequence (P36544 23-502): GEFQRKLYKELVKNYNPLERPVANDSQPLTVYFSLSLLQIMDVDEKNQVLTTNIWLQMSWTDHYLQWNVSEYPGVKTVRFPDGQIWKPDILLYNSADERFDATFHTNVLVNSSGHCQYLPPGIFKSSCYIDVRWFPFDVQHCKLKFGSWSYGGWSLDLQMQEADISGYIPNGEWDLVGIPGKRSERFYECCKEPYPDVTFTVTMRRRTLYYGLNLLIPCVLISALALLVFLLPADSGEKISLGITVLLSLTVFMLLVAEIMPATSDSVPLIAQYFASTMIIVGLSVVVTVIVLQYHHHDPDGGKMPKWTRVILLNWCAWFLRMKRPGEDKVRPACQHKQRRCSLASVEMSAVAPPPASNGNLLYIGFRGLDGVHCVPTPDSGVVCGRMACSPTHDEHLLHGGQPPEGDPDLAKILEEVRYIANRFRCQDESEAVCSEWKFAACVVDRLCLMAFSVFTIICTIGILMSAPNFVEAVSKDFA
T3 sequence (P43681 29-627 limits assumed): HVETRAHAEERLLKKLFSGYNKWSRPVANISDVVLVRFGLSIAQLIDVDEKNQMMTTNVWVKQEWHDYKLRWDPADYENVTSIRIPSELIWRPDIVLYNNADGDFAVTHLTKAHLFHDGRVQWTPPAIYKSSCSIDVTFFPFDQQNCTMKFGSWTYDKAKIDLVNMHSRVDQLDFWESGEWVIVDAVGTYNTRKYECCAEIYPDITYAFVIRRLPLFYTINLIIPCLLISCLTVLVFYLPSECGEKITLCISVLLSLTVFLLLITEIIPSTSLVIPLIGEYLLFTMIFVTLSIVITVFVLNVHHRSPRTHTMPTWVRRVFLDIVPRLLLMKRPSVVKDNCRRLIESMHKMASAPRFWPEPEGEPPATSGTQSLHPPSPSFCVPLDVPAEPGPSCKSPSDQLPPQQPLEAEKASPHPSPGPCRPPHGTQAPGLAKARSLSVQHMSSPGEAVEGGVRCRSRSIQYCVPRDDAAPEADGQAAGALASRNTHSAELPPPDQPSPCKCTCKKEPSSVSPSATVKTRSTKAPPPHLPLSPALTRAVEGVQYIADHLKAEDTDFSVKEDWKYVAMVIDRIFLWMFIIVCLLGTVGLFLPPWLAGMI
T3 sequence (P17787 26-502): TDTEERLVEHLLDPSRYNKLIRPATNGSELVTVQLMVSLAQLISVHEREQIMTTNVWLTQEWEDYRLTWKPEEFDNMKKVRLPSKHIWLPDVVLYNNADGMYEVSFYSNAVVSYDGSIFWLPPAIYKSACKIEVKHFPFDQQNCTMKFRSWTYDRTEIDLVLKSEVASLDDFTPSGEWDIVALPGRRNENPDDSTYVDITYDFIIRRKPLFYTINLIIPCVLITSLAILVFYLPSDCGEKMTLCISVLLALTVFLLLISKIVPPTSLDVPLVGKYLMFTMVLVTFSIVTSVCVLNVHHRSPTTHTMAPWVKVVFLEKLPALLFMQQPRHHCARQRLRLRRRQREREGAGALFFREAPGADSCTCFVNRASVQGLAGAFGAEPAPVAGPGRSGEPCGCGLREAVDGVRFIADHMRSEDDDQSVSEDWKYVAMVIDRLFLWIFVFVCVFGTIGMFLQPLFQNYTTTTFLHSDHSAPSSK
T5 sequence (P43681 29-627 limits assumed): as the sequence (P43681 29-627 limits assumed) above
T5 sequence (Q15825 26-494): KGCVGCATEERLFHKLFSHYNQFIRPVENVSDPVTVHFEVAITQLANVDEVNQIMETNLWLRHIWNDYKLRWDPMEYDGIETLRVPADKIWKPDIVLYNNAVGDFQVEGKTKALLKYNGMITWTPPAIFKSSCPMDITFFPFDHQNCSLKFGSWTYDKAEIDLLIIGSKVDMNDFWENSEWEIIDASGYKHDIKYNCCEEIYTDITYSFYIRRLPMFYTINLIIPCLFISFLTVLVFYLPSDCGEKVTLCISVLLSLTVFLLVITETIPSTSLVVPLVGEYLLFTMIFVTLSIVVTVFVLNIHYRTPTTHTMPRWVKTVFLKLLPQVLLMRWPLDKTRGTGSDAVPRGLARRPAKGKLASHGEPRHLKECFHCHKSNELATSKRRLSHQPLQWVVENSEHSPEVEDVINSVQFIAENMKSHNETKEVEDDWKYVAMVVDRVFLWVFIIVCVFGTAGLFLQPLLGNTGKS
T5 sequence (P17787 26-502): as the sequence (P17787 26-502) above
T6 sequence (P32297 32-505): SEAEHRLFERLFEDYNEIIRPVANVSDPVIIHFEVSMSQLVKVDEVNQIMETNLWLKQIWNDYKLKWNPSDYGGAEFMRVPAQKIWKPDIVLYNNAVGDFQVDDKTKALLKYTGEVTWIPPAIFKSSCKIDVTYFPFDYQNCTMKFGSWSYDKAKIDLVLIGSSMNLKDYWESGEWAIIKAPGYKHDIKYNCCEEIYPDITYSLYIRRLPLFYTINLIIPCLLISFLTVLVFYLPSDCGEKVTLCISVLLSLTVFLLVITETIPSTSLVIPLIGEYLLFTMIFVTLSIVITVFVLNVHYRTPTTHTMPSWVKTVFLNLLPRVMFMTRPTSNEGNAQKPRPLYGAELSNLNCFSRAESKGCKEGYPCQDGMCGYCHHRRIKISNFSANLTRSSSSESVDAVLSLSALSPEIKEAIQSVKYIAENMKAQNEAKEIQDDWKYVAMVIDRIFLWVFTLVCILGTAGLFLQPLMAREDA
T6 sequence (P30926 22-498): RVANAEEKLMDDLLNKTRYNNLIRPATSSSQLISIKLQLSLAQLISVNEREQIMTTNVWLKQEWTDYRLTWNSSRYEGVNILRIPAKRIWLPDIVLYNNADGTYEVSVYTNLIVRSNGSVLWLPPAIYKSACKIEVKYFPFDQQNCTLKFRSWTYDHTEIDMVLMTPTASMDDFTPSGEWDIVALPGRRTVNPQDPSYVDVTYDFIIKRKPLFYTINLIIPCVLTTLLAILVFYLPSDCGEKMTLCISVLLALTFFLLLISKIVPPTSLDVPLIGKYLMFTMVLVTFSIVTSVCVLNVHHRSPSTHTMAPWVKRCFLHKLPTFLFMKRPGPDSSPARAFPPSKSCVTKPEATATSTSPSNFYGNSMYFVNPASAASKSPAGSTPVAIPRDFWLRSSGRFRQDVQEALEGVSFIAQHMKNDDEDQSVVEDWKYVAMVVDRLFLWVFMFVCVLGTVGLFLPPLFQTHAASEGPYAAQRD
T4 sequence (P32297 32-505): as the sequence (P32297 32-505) above
T4 sequence (P30532 23-468 partner): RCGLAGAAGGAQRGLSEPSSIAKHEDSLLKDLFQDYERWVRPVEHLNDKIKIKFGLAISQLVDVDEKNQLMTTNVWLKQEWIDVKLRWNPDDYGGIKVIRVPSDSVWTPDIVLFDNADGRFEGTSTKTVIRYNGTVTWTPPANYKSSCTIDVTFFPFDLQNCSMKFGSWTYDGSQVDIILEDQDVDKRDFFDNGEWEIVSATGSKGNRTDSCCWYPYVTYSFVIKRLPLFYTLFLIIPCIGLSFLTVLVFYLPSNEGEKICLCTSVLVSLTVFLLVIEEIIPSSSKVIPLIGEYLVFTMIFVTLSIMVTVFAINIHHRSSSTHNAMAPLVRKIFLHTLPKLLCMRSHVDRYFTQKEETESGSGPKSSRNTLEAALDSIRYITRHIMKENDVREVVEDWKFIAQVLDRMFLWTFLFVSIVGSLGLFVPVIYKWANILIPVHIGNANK
T4 sequence (P30926 22-498, further chain): as the sequence (P30926 22-498) above
T2 sequence (Q15825 26-494): as the sequence (Q15825 26-494) above
T2 sequence (P17787 26-502): as the sequence (P17787 26-502) above
T7 sequence (P32297 32-505): as the sequence (P32297 32-505) above
T7 sequence (P17787 26-502): as the sequence (P17787 26-502) above

For `C(=C\[C@H]1CCNC1)/c1cncnc1.O=C(O)CC(O)(CC(=O)O)C(=O)O` [compound 1 citrate, (R)-5-((E)-2-pyrrolidin-3-ylvinyl)pyrimidine mono-citrate], the “percent of the maximal ACh-evoked current” value on nAChR subtype alpha7 (300 micromolar concentration, subtype alpha7) was 25%.
For the compound “Tβ4: 43-amino acid peptide, SEQ ID NO: 26; tested as 0.1% Tβ4 ophthalmic formulation (SDKPDMAEIEKFDKSKLKKTETQEKNPLPSKETIEQEKQAGES; listed as Homo sapiens)”, in the test with subjects with dry eye, the “effect on corneal staining” value is listed as “significant positive effects” and the “effect on ocular discomfort” value is “significant positive effects”.
On to `O=C(O)C(O)C(O)C(=O)O.c1cnc2cc3c(cc2n1)C1CNCC3C1` [Varenicline, varenicline], for which the “agonist characterization at nAChR subtype alpha6beta2” value in [1] is given as “partial agonist”. Besides, in the test on tear film [2], the “effect of nasal spray on tear hNGFβ protein concentration” value is “increased tear hNGFβ protein concentration”. Also, the “increase of hNGF concentration in the Schirmer strip over the levels measured at the 7 and 14 day collections” value with tear film [3] is given as “up to 3 fold”. Moreover, in [4], the “agonist characterization at nAChR subtype alpha4beta2” value is given as “partial agonist”. In [5], the “agonist characterization at nAChR subtype alpha3alpha5beta4” value is recorded as “partial agonist”. Also, in test [6], the “agonist characterization at nAChR subtype alpha4alpha6beta2” value is “partial agonist”. In test [7], the “agonist characterization at nAChR subtype alpha3beta4” value was “partial agonist”. Also, the “agonist characterization at nAChR subtype alpha7” value at nAChR subtype alpha7 is reported as “full agonist”.
For the compound `C(=C\[C@H]1CCNC1)/c1cncnc1` [Compound 1, (R)-5-((E)-2-pyrrolidin-3-ylvinyl)pyrimidine], the “agonist characterization at nAChR subtype alpha3beta2” value in [8] is recorded as “partial agonist”. The “agonist characterization at nAChR subtype alpha4beta2” value in test [4] is given as “full agonist”. In addition, the “agonist characterization at nAChR subtype alpha3alpha5beta4” value in [5] is on record as “full agonist”. Further, the “agonist characterization at nAChR subtype alpha4alpha6beta2” value in [6] was “full agonist”. The “agonist characterization at nAChR subtype alpha3beta4” value in test [7] was “full agonist”. In addition, the “agonist characterization at nAChR subtype alpha7” value at nAChR subtype alpha7 was “weak partial agonist”.

The record behind these values is patent publication US20240226109A1, “CO-THERAPY WITH VECTOR AND NICOTINIC AGONIST” (OYSTER POINT PHARMA, INC., priority 2021, published 2024).
